From PMC9684079, “Pharmacological targeting of glutamatergic neurons within the brainstem for weight reduction” (Nature Metabolism, 2022)

Experiments:
Test in all cases: biochemical
Conditions in all cases: read-out: % Inhibition
Cyclooxygenase COX-1 = target: T1, Cyclooxygenase COX-1 (Homo sapiens, UniProt P23219); set-up: Cerep/Eurofins selectivity panel, enzymes, per cent inhibition at 10 uM
T1 construct: gene PTGS1

Cyclooxygenase COX-2 = target: T2, Cyclooxygenase COX-2 (Homo sapiens, UniProt P35354); set-up: Cerep/Eurofins selectivity panel, enzymes, per cent inhibition at 10 uM
T2 construct: gene PTGS2

HMG-CoA Reductase = target: T3, HMG-CoA Reductase (Homo sapiens, UniProt P04035); set-up: Cerep/Eurofins selectivity panel, enzymes, per cent inhibition at 10 uM
T3 construct: gene HMGCR

Peptidase, Factor Xa = target: T4, Peptidase, Factor Xa (Homo sapiens, UniProt P00742); set-up: Cerep/Eurofins selectivity panel, enzymes, per cent inhibition at 10 uM
T4 construct: gene F10; factor Xa

[1] = target: T5, Phosphodiesterase PDE10A2 (Homo sapiens, UniProt Q9Y233); set-up: Cerep/Eurofins selectivity panel, enzymes, per cent inhibition at 10 uM
T5 construct: gene PDE10A; isoform PDE10A2

[2] = target: Protein Serine/Threonine Kinase, MAP2K1 (MEK1) (Homo sapiens, UniProt Q02750); set-up: Cerep/Eurofins selectivity panel, enzymes, per cent inhibition at 10 uM
[3] = target: Protein Serine/Threonine Kinase, MAPK1 (ERK2) (Homo sapiens, UniProt P28482); set-up: Cerep/Eurofins selectivity panel, enzymes, per cent inhibition at 10 uM
[4] = target: Protein Serine/Threonine Kinase, MAPK14 (p38a) (Homo sapiens, UniProt Q16539); set-up: Cerep/Eurofins selectivity panel, enzymes, per cent inhibition at 10 uM
[5] = target: Protein Serine/Threonine Kinase, MAPK3 (ERK1) (Homo sapiens, UniProt P27361); set-up: Cerep/Eurofins selectivity panel, enzymes, per cent inhibition at 10 uM
[6] = target: Protein Serine/Threonine Phosphatase, PPP3CA (Calccineurin, PP2B) (Homo sapiens, UniProt Q08209); set-up: Cerep/Eurofins selectivity panel, enzymes, per cent inhibition at 10 uM
[7] = target: Protein Tyrosine Kinase, ERBB2 (HER2) (Homo sapiens, UniProt P04626); set-up: Cerep/Eurofins selectivity panel, enzymes, per cent inhibition at 10 uM
Adenosine A3 = target: T6, Adenosine A3 (Homo sapiens, UniProt P0DMS8); set-up: Cerep/Eurofins selectivity panel, receptors, channels and transporters, per cent inhibition at 10 uM
T6 construct: gene ADORA3

Adrenergic β2 = target: T7, Adrenergic β2 (Homo sapiens, UniProt P07550); set-up: Cerep/Eurofins selectivity panel, receptors, channels and transporters, per cent inhibition at 10 uM
T7 construct: gene ADRB2

Estrogen Erα = target: T8, Estrogen Erα (Homo sapiens, UniProt P03372); set-up: Cerep/Eurofins selectivity panel, receptors, channels and transporters, per cent inhibition at 10 uM
T8 construct: gene ESR1

Histamine H2 = target: T9, Histamine H2 (Homo sapiens, UniProt P25021); set-up: Cerep/Eurofins selectivity panel, receptors, channels and transporters, per cent inhibition at 10 uM
T9 construct: gene HRH2

Opiate κ(OP2, KOP) = target: T10, Opiate κ(OP2, KOP) (Homo sapiens, UniProt P41145); set-up: Cerep/Eurofins selectivity panel, receptors, channels and transporters, per cent inhibition at 10 uM
T10 construct: gene OPRK1

Opiate μ(OP3, MOP) = target: T11, Opiate μ(OP3, MOP) (Homo sapiens, UniProt P35372); set-up: Cerep/Eurofins selectivity panel, receptors, channels and transporters, per cent inhibition at 10 uM
T11 construct: gene OPRM1

[8] = target: T12, Serotonin (5-Hydroxytryptamine) 5-HT2B (Homo sapiens, UniProt P41595); set-up: Cerep/Eurofins selectivity panel, receptors, channels and transporters, per cent inhibition at 10 uM
T12 construct: gene HTR2B

Tachykinin NK1 = target: T13, Tachykinin NK1 (Homo sapiens, UniProt P25103); set-up: Cerep/Eurofins selectivity panel, receptors, channels and transporters, per cent inhibition at 10 uM
T13 construct: gene TACR1

[9] = target: T14, Protein Tyrosine Kinase, ZA70 (ZAP-70) (Homo sapiens, UniProt P43403); set-up: Cerep/Eurofins selectivity panel, enzymes, per cent inhibition at 10 uM
T14 construct: gene ZAP70

[10] = target: Protein Tyrosine Kinase, LYN B (Homo sapiens, UniProt P07948); set-up: Cerep/Eurofins selectivity panel, enzymes, per cent inhibition at 10 uM
Calcium Channel N-type = target: T15, Calcium Channel N-type (Rattus norvegicus, UniProt Q02294); set-up: Cerep/Eurofins selectivity panel, receptors, channels and transporters, per cent inhibition at 10 uM
T15 construct: gene Cacna1b

Insulin = target: T16, Insulin (Rattus norvegicus, UniProt P15127); set-up: Cerep/Eurofins selectivity panel, receptors, channels and transporters, per cent inhibition at 10 uM
T16 construct: gene Insr

[11] = target: T17, Growth Hormone Secretogogue (GHS, Ghrelin) (Homo sapiens, UniProt Q92847); set-up: Cerep/Eurofins selectivity panel, receptors, channels and transporters, per cent inhibition at 10 uM
T17 construct: gene GHSR

Glucocorticoid = target: T18, Glucocorticoid (Homo sapiens, UniProt P04150); set-up: Cerep/Eurofins selectivity panel, receptors, channels and transporters, per cent inhibition at 10 uM
T18 construct: gene NR3C1
T18 sequence (P04150 whole entry): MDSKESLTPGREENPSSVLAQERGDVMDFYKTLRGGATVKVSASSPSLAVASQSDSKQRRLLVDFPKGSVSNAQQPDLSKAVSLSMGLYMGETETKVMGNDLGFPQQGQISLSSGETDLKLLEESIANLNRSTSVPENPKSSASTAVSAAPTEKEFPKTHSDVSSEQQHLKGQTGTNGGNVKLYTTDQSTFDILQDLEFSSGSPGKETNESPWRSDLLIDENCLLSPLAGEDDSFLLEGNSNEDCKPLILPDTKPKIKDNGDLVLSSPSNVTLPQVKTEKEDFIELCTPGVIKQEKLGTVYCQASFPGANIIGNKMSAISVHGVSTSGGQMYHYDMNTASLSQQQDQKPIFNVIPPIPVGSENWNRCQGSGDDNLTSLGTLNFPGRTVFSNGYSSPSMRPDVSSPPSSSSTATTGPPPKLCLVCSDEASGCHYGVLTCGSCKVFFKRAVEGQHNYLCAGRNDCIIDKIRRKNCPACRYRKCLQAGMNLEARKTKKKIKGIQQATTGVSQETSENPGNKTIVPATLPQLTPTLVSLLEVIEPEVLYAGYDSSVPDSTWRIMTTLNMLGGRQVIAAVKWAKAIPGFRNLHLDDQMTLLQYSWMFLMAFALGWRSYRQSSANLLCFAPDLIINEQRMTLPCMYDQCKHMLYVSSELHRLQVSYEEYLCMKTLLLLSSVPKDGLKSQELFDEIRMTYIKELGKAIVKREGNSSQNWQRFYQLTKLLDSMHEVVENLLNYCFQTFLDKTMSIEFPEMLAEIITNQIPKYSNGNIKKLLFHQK

T12 sequence (P41595 whole entry): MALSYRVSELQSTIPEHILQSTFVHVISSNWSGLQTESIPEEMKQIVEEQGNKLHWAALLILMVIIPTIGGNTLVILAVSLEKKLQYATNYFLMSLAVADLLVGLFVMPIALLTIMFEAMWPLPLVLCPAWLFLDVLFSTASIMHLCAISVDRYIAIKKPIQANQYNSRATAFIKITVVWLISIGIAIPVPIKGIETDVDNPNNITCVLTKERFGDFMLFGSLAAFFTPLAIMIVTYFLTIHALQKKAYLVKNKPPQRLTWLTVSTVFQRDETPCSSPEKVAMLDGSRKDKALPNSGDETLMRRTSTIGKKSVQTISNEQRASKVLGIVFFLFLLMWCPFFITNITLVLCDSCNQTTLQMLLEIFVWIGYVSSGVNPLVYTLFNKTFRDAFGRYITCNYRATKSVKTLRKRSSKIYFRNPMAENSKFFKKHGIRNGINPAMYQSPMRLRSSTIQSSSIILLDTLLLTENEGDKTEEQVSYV
Chain of Protein Serine/Threonine Kinase, MAPK1 (ERK2) (P28482 whole entry): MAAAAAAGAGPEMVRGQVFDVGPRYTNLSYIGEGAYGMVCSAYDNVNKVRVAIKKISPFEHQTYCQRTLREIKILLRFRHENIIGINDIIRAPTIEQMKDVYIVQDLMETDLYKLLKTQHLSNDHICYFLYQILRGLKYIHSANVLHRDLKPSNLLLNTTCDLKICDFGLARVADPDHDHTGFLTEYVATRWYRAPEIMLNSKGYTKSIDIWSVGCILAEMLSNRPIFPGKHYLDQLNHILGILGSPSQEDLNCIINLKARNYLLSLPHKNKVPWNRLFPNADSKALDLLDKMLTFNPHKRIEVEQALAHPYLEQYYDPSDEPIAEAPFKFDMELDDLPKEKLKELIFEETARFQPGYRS
T7 sequence (P07550 whole entry): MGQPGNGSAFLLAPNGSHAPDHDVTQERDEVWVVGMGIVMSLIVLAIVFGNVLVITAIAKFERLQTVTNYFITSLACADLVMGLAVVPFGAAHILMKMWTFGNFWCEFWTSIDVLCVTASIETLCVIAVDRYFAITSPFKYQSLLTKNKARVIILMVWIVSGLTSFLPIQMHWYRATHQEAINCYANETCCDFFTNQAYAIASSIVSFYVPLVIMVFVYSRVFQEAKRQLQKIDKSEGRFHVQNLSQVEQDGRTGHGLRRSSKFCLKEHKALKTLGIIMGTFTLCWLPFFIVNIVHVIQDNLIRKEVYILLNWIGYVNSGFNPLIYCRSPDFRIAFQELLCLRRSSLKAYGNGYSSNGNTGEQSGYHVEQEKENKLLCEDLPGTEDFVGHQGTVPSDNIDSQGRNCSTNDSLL
T8 sequence (P03372 whole entry): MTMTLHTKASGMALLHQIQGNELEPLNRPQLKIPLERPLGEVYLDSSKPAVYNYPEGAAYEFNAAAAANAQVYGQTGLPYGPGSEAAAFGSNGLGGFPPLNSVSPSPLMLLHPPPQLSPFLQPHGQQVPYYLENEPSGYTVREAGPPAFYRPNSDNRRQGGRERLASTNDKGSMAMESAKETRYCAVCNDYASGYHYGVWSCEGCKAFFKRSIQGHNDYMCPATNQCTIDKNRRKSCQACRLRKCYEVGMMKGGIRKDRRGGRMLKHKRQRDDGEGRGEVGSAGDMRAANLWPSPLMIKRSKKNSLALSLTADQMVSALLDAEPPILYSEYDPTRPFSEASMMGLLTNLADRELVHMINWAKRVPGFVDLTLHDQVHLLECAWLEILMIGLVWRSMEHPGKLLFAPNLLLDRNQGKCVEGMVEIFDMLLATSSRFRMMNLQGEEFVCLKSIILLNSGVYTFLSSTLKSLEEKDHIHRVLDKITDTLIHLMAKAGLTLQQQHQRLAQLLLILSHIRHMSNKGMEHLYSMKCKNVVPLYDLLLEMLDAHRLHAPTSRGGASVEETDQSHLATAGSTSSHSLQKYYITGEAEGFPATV
T10 sequence (P41145 whole entry): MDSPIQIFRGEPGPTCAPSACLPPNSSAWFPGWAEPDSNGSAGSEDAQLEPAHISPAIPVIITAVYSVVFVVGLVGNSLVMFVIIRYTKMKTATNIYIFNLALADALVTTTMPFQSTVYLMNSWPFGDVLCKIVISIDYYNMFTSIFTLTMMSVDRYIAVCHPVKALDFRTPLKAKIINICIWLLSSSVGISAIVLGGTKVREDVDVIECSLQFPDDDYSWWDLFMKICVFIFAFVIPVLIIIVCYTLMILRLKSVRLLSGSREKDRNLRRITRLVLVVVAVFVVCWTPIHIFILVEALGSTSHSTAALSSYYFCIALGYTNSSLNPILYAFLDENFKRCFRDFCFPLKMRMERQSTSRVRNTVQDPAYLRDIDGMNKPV
Chain of Protein Tyrosine Kinase, ERBB2 (HER2) (P04626 whole entry): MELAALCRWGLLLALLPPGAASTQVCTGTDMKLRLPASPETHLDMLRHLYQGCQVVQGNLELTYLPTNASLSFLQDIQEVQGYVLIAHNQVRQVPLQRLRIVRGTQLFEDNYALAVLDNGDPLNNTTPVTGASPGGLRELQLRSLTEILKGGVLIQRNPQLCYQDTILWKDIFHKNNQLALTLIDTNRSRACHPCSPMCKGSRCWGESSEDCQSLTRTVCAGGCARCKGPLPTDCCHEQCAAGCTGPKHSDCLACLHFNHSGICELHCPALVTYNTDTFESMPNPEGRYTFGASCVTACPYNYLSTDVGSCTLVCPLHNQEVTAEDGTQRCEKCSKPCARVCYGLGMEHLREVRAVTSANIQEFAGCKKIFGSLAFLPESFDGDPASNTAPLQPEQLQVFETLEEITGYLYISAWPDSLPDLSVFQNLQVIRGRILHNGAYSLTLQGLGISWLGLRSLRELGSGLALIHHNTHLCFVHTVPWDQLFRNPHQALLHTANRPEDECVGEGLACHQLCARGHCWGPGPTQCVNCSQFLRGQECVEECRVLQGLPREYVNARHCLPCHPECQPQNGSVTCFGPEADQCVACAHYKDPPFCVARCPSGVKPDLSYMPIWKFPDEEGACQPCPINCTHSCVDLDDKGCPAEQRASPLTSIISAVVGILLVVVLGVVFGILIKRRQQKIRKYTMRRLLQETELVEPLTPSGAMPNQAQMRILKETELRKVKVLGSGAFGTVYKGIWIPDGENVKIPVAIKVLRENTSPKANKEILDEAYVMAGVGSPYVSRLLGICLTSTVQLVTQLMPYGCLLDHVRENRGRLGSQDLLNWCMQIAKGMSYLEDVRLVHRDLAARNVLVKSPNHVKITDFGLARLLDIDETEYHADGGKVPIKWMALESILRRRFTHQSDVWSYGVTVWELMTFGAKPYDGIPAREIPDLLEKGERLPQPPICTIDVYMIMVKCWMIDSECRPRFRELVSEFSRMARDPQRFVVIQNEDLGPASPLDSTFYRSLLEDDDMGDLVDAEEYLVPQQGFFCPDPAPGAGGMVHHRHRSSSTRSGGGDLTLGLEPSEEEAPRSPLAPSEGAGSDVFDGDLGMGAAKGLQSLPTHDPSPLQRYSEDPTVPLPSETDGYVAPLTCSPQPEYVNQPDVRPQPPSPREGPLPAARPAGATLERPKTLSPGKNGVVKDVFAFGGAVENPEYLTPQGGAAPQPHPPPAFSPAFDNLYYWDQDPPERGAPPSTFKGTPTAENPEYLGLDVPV
Chain of Protein Serine/Threonine Kinase, MAPK14 (p38a) (Q16539 whole entry): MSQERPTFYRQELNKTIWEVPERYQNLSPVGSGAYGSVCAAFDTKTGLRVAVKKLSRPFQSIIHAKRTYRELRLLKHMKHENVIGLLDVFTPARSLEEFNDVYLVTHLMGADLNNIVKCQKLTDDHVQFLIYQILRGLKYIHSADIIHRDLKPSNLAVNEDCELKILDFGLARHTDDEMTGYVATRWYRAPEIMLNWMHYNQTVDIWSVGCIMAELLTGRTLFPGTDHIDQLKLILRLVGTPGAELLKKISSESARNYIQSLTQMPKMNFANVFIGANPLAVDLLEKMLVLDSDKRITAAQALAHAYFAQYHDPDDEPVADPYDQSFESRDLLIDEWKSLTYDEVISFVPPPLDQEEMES
Chain of Protein Serine/Threonine Kinase, MAP2K1 (MEK1) (Q02750 whole entry): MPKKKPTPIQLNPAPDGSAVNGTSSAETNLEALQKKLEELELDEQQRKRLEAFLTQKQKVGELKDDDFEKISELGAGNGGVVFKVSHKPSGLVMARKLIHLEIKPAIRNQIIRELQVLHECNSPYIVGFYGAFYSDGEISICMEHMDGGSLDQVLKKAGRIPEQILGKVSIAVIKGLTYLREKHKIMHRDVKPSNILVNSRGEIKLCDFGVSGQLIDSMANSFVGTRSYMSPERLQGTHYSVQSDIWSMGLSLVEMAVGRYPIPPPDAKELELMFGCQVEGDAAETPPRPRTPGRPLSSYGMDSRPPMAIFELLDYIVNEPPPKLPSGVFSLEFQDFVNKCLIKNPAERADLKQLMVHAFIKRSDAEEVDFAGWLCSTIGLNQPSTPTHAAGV

Question: For `C[C@]1(Nc2cnc(C(F)(F)F)cn2)CCC[C@@H]1NC(=O)c1ncccc1-n1nccn1` [CVN45502], which inhibition at 10 µM (Cyclooxygenase COX-1) is on record?
Answer: 5%

Question: And the inhibition at 10 µM (Cyclooxygenase COX-2)?
Answer: -13%

Question: And the inhibition at 10 µM (HMG-CoA Reductase)?
Answer: -4%

Question: What about the inhibition at 10 µM (Peptidase, Factor Xa) of the same compound?
Answer: -2%

Question: And the inhibition at 10 µM [1]?
Answer: 35%

Question: And the inhibition at 10 µM [2]?
Answer: -4%

Question: And the inhibition at 10 µM [3]?
Answer: 5%

Question: What about the inhibition at 10 µM [4] of the same compound?
Answer: -1%

Question: And the inhibition at 10 µM [5]?
Answer: 8%

Question: What about the inhibition at 10 µM [6] of the same compound?
Answer: 12%

Question: And the inhibition at 10 µM [7]?
Answer: 0%

Question: And the inhibition at 10 µM (Adenosine A3)?
Answer: -2%

Question: And the inhibition at 10 µM (Adrenergic β2)?
Answer: 0%

Question: And the inhibition at 10 µM (Estrogen Erα)?
Answer: 2%

Question: And the inhibition at 10 µM (Histamine H2)?
Answer: -14%

Question: And the inhibition at 10 µM (Opiate κ(OP2, KOP))?
Answer: 3%

Question: And the inhibition at 10 µM (Opiate μ(OP3, MOP))?
Answer: -3%

Question: What about the inhibition at 10 µM [8] of the same compound?
Answer: 4%

Question: And the inhibition at 10 µM (Tachykinin NK1)?
Answer: 12%

Question: And the inhibition at 10 µM [9]?
Answer: -1%

Question: What about the inhibition at 10 µM [10] of the same compound?
Answer: 6%

Question: And the inhibition at 10 µM (Calcium Channel N-type)?
Answer: -1%

Question: And the inhibition at 10 µM (Insulin)?
Answer: 2%

Question: What about the inhibition at 10 µM [11] of the same compound?
Answer: -5%

Question: What about the inhibition at 10 µM (Glucocorticoid) of the same compound?
Answer: 13%
